Data taken from PMC12040169 (PLOS Biology, 2025).

Test: in vitro
Details: human, hela cells, % viability

| Structure (SMILES) | viability at 28.5 h, 10 µM [%] |
| --- | --- |
| COc1cc2c(cc1OC)C(C)N(C(=O)CCC(=O)O)CC2 (stereo not drawn) [CBK269873] | 92.5 |
| CC1CCCN(CC(C)NC(=O)Cn2cnc3ccc(F)cc3c2=O)C1 (stereo not drawn) [CBK305953] | 91.5 |
| CCC(=O)N1CCCc2cc(C(O)CN3CCCCC3)ccc21 (stereo not drawn) [CBK282130] | 81.6 |
| O=C(c1ccc(SCc2cccnc2)c([N+](=O)[O-])c1)N1CCCCC1 [CBK294452] | 98.8 |
| O=C(O)CCN1CCn2c3c(c4cc(C5CCCCC5)ccc42)CCCC31 (stereo not drawn) [CBK263236] | 91.4 |
| O=C(Cn1nc(-c2ccco2)ccc1=O)Nc1ccccn1 [CBK287985] | 87.4 |
| Cc1ccc(CN[C@@H]2COC[C@H]2Cc2cc(C)no2)cc1 [CBK283030] | 106 |
| Cc1nn(Cc2ccccc2)c(C)c1C(=O)N(C)C [CBK015942] | 104 |
| COc1ccc([C@@]23CC=C(N(Cc4ccccc4)C(=O)Nc4ccc(F)c(F)c4)C[C@@H]2N(C)CC3)cc1OC [CBK050179] | 94.9 |
| CCc1nn(CC(=O)NC2CCC2)c(=O)c2cc3ccsc3n12 [CBK284136] | 88.9 |
| Cc1cc(N2C(=O)c3ccc(Oc4ccc5c(c4)C(=O)N(c4cc(C)on4)C5=O)cc3C2=O)no1 [CBK266463] | 85.8 |
| Cn1nccc1NS(=O)(=O)c1ccc(-c2cnco2)s1 [CBK062088] | 94.4 |
| COc1ccc(-c2cc(C(F)(F)F)nc(SCC(=O)NN3CCN(C)CC3)n2)cc1 [CBK266115] | 96.5 |
| COc1ccc(Cl)cc1N1CCN(Cc2ncc[nH]2)CC1 [CBK126418] | 98.1 |
| Cc1cccc(-c2ccc3c(c2)C(=O)N2CC[C@H](NC(=O)c4cnccn4)[C@H]2C(=O)N3)c1C [CBK289348] | 87.2 |
| Cc1cccc(-c2ncc(NC(=O)CCc3cccnc3)nc2-c2ccc(N)cc2)c1 [CBK036684] | 86.9 |
| O=C1CCCN1CCC(=O)N1CCCC1c1nc2ccccc2[nH]1 (stereo not drawn) [CBK283981] | 84.2 |
| Cc1n[nH]c(C)c1CNC(=O)C1CCN(Cc2ccc(F)cc2)CC1 [CBK282502] | 92 |
| O=C(Nc1ccccc1)c1ccc(COc2ccc3ccccc3c2)o1 [CBK265897] | 113 |
| NC(=O)c1ccc(-c2cncc(NCc3ccco3)n2)cc1 [CBK065383] | 85.6 |
| COCCNC(=O)c1cc(-c2ccccc2C)cnc1NS(C)(=O)=O [CBK106422] | 82.9 |
| COc1ccc(C(=O)NCCCCCC(=O)O)cc1 [CBK287146] | 109 |
| O=C(c1cc2c(s1)CCC2)N1CCC[C@H]1[C@H](O)c1nccs1 [CBK284287] | 92.5 |

| Structure (SMILES) | viability at 28.5 h, 10 µM [%] |
| --- | --- |
| CC(C)Oc1ccccc1-c1nnc(SCC(=O)O)[nH]1 [CBK262702] | 81.7 |
| CSc1oc(-c2ccccc2)nc1C(N)=O [CBK067744] | 98.4 |
| Cc1ccc(C(=O)N2CN(C(=O)CN(C)CCN(C)C)CC2(C)C)cc1 [CBK091460C] | 115 |
| Cc1cc(CN2CCN(C(C)c3nc(C(C)(C)C)no3)CC2)no1 (stereo not drawn) [CBK305641] | 97.7 |
| Cc1ccc([N+](=O)[O-])cc1NC(=O)C1CCCN1S(=O)(=O)c1ccc(Cl)cc1 (stereo not drawn) [CBK033769] | 95.7 |
| Cc1cc(C(=O)Nc2ccc(S(=O)(=O)N3CC(C)OC(C)C3)cc2)c2ccccc2n1 (stereo not drawn) [CBK295170] | 87.4 |
| CC(NC(=O)Cc1cccc(F)c1)c1nc2cccnc2n1C(C)C (stereo not drawn) [CBK283831] | 98.5 |
| COCCNC(=O)Cn1c(-c2cccs2)cc2cccnc21 [CBK282554] | 109 |
| CS(=O)(=O)N1CC2(CCNCC2)c2ccccc21 [CBK005171] | 94.4 |
| c1c2c(cc3sc(N4CCCC4)nc13)OCCO2 [CBK287496] | 69.6 |
| CCc1cc(C(=O)OC)c(NC(=O)CC2NCCNC2=O)s1 (stereo not drawn) [CBK266990] | 97.6 |
| CS(=O)(=O)N1CCc2cc(S(=O)(=O)NCCc3c[nH]c4ccccc34)ccc21 [CBK268487] | 101 |
| C=Cn1ncc(CN(C)Cc2nc3ccccc3[nH]2)c1C [CBK283170] | 91.6 |
| CC1CC(C)CN(C(=O)c2ccc(-n3ccnc3)c(-n3cccc3)c2)C1 (stereo not drawn) [CBK285372] | 101 |
| O=C(Cn1cccc(C(=O)NC2CCCCC2)c1=O)Nc1nc2c(s1)CCCCC2 [CBK286056] | 90.1 |
| O=c1c(C(F)(F)F)cccn1Cc1ccccc1 [CBK023620] | 107 |
| CCn1c(=O)n(CC(=O)NCc2cccs2)c2cccnc21 [CBK283811] | 88.3 |
| CC(C)CN1CCC2(CC=CCN(Cc3ccc(F)cc3)C2=O)CC1 [CBK285521] | 116 |
| CCOC(=O)C1(C2CCCCC2)CCN(C(=O)COc2ccccc2OC)CC1 [CBK136928] | 96.7 |
| Cc1c(C(=O)N(C)Cc2nc(C(F)(F)F)cs2)nnn1C1CCNCC1 [CBK304315C] | 106 |
| Cn1c(=O)c2[nH]c(-c3ccncc3)nc2n(C)c1=O [CBK287902] | 92.5 |
| c1ccc(CCCNc2ncc(-c3ccc(N4CCOCC4)cc3)n3ccnc23)cc1 [CBK091223] | 112 |
| CN1CCN(C2CC(=O)N(c3ccc(Oc4ccccc4)cc3)C2=O)CC1 (stereo not drawn) [CBK265434] | 103 |

| Structure (SMILES) | viability at 28.5 h, 10 µM [%] |
| --- | --- |
| CC(=O)N1CCN(c2cc(-c3noc([C@@H]4CCCN4C4CCOCC4)n3)ccn2)CC1 [CBK288879] | 88 |
| O=S(=O)(NCCn1cccc1)c1ccc2ccccc2c1 [CBK270211] | 90.4 |
| C#CCOc1ccc(/C=N/N=C(\N)c2nonc2N)cc1OC [CBK264765] | 109 |
| CN(C)CCN1CCN(c2nccnc2-c2cccc(CO)c2)CC1 [CBK037047] | 94.7 |
| Cc1cccc(CN(CCCN(C)C)Cc2ccc(C)o2)n1 [CBK283187] | 98.2 |
| CC1(C)SC2c3ccccc3C(=O)N2[C@@H]1C(=O)N1CCC(C(=O)O)CC1 (stereo partly drawn) [CBK286760] | 89.4 |
| O=C(CC1Nc2ccccc2NC1=O)Nc1cccc(C(F)(F)F)c1 (stereo not drawn) [CBK262510] | 99.6 |
| COc1cccc(NC(=O)CCn2ncc(Cl)c2C)c1 [CBK288012] | 94.9 |
| COC(=O)c1c(N=C(S)Nc2ccc(CC(=O)O)cc2)sc(C)c1C [CBK267111] | 96.4 |
| CC(NC(=O)C1CCN(Cc2nccs2)CC1)c1ccc(F)cc1 (stereo not drawn) [CBK148056] | 102 |
| CC(C)NCc1c(O)c(Br)cc2oc3c(c12)CCCC3 [CBK160400] | 96.5 |
| CCn1c(CN2CCOCC2)nnc1SCC(=O)Nc1cc(C)cc(C)c1 [CBK270258] | 95.9 |
| COc1ccc(C(=O)NCC(O)CN2CCOCC2)cc1[N+](=O)[O-] (stereo not drawn) [CBK265643] | 105 |
| CCn1c(SCC(=O)O)nnc1-c1c[nH]c2ccccc12 [CBK287089] | 85.9 |
| COc1ccc(-n2c(S)nnc2-c2cccs2)cc1 [CBK266832] | 103 |
| COCCNc1nc(-c2ccccc2OC)ccc1C(=O)NCCNC(C)=O [CBK105974] | 100 |
| COc1ncc(-c2ccc(Nc3ccc(N4CCOCC4)cc3)nc2)c(OC)n1 [CBK036988] | 95 |
| O=C(NC1CC2(CCCCC2)Oc2ccccc21)C1CCOC1 (stereo not drawn) [CBK283760] | 105 |
| Cc1ccc(N(CC(=O)Nc2cc(Cl)ccc2C)S(C)(=O)=O)cc1 [CBK264030] | 92.9 |
| c1ccc(CSc2nnc(COc3cccc4ccccc34)n2Cc2ccccc2)cc1 [CBK267215] | 116 |
| N/C(=N/c1ccccn1)C(F)(F)F [CBK021049] | 90.1 |
| Cc1ccc(CN2CCC(N3C(=O)NC4(CCN(CC(C)C)CC4)C3=O)CC2)cc1C [CBK285822] | 96.9 |
| C[C@@H](c1ccccc1)N1C(=O)[C@@H]2CN(C(=O)COCC(=O)O)CCN2C1=O [CBK289636] | 94.3 |

| Structure (SMILES) | viability at 28.5 h, 10 µM [%] |
| --- | --- |
| COc1ccc(C[C@@H]2NC(=O)[C@H]3CN(C(=O)c4cccn4C)CCN3C2=O)cc1 [CBK289616] | 93.4 |
| O=C(O)CCC(=O)Nc1ccc(-c2nc3ccccc3o2)cc1 [CBK261330] | 98 |
| CC[C@H](Cn1ncc2ccccc2c1=O)NC(=O)CC(C)C [CBK284305] | 89.1 |
| N=C(N/N=C\c1ccncc1)N/N=C\c1ccncc1 [CBK263278C] | 94.1 |
| O=C(O)c1cc(-c2cccc(O)c2)nc2ccc(Br)cc12 [CBK261777] | 97.9 |
| NCCCC(C(=O)O)C(=O)c1ccccc1-c1ccccc1 (stereo not drawn) [CBK286941] | 99.2 |
| COc1ccc(S(=O)(=O)N2CCN(c3ccccc3F)CC2)cc1 [CBK070377] | 87.1 |
| Cc1cnc2n(c1=O)C(CC(=O)NCc1ccncc1)CS2 (stereo not drawn) [CBK287671] | 111 |
| O=C1CNC(=O)C2(C/C=C/C[C@H]3COCC[C@H]3N1)CCN(Cc1cccc3[nH]ccc13)CC2 [CBK292073] | 110 |
| COCCN1C(=O)C2(CC(=O)N(Cc3ccccc3)C2=O)c2cc(OC)ccc21 (stereo not drawn) [CBK075177] | 92.5 |
| Cc1nn(Cc2c(F)cccc2Cl)c(C)c1NC(=O)CCCC(=O)O [CBK286838] | 108 |
| OCC1CCCN1c1cncc(-c2ccc3c(c2)OCO3)n1 (stereo not drawn) [CBK065908] | 100 |
| COC(=O)c1ccccc1NC(=O)CSc1nnnn1C [CBK267441] | 90 |
| O=c1cc(Cn2ccnc2)c2cc3c(cc2o1)CCC3 [CBK287813] | 88.8 |
| Cc1cccnc1NC(=O)c1cccc(C(=O)Nc2ncccc2C)c1 [CBK262184] | 88.6 |
| Cc1cccc(C(=O)Oc2ccc(-n3ccnc3)cc2)c1 [CBK090137] | 101 |
| O=C(c1nccs1)C1CCN(C(=O)c2cccs2)CC1 [CBK284159] | 106 |
| O=C(NCc1ccc(Cl)cc1)c1cnc2ccc(C#CCO)cc2c1O [CBK017979] | 92.4 |
| c1ccc(Oc2ccccc2-c2cc(NCCc3c[nH]cn3)ncn2)cc1 [CBK037845] | 82.9 |
| CC(C)NC(=O)c1sc2ccccc2c1C1CN(Cc2cccc3ncccc23)CCO1 (stereo not drawn) [CBK285879] | 85.6 |
| CCn1ccnc1CN1CCCC(CCc2ccccc2F)C1 (stereo not drawn) [CBK307173] | 99.3 |
